The values below come from patent EP0068324A2, “Microcapsule preparation for reducing increased intracranial pressure and a process for preparing the same” (Tanabe Seiyaku Co., Ltd., priority 1981, dated 1983).

Usually LD50 stands for the dose expected to kill half of the subjects tested. Read a low LD50 as a more toxic substance.

The nature of this data set: in vivo. The conditions noted are these: mouse, po, mice, orally administered, measured one week after administration. The text has this: The microcapsule preparation containing a propanol derivative of the present invention can reduce the intracranial pressure in an extremely small amount, which may be by a different mechanism from the hyperosmolar dehydrating effect by the known intravenous injection of a large amount of hypertonic solution, and the therapeutic effect is large and durable without showing any side effect such as a rebound increase of the intracranial pressure. The propanol derivative (I) of the present invention is low toxic and highly safeful.

For `COc1cc(NC(C)=O)ccc1OCC(O)CN1CCN(c2cccc(F)c2)CC1` (stereo not shown) [1-(4-Acetamido-2-methoxyphenoxy)-3-[4-(3-fluorophenyl)piperazino]-2-propanol], the LD50 at 168 h was around 1500 mg/kg.
